# In patent US8778966B2, “Quinolinone derivatives as PARP and tank inhibitors” (Janssen Pharmaceutica, NV, priority 2007, dated 2014):
# How the values were obtained:
# PC3 cells = experiment: EB1 Comet (microtubule disruption) assay; format: cell-based, human; details: Homo sapiens, PC-3, 1 h, 1 hour treatment, read-out: EB1 pLAC (converted)
# Outline: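 Readout is loss of Eb1 plus-end foci, scored by immunofluorescence microscopy, in PC3 cells after 1 h compound treatment at 37 °C with 0.6% final DMSO. LAC is defined as the lowest concentration leaving at least 50% of cells without Eb1 foci.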
# tubulin = experiment: Tubulin polymerization assay; format: biochemical; parameters: key: a compound showing 0 to 50% inhibition at 20 μM is reported as score 1; Score 2 compounds are defined as compound showing more than 50% inhibition at 20 μM and less than 50% inhibition at 5 μM; a compound showing more than 50% inhibition at 5 μM is reported as score 3; details: tested at 20 μM and 5 μM
# Outline: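 Cytoskeleton kit tubulin was run in a 10 µl final volume at 37 °C, with fluorescence read every minute for 1 h. Polymerization was taken as the maximum slope (4-point linear regression) and expressed as % of no-compound control. Compounds were tested at 20 µM, then at 5 µM if inhibition exceeded 50%, and scored by % inhibition.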
# Human PARP-1 enzyme = target: T1, Human PARP-1 enzyme (Homo sapiens, UniProt P09874); experiment: In vitro Scintillation Proximity Assay (SPA) for PARP-1 inhibitory activity; format: biochemical; details: read-out: in vitro SPA assay PARP-1 pIC50 (converted)
# T1 construct: purchased Trevigen
# Outline: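 SPA assay: nicked-DNA-activated PARP-1 (0.1–0.2 μg/ml) ADP-ribosylates biotinylated histones (2 μg/ml) using [3H]-NAD+, 20 min at RT in Tris pH 8/DTT/MgCl2, stopped with 2 mM NAD+. Blank-subtracted cpm expressed as % control; IC50 by linear interpolation, reported as pIC50 (10−5 to 3×10−9 M tested).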
# T1 sequence (P09874 whole entry): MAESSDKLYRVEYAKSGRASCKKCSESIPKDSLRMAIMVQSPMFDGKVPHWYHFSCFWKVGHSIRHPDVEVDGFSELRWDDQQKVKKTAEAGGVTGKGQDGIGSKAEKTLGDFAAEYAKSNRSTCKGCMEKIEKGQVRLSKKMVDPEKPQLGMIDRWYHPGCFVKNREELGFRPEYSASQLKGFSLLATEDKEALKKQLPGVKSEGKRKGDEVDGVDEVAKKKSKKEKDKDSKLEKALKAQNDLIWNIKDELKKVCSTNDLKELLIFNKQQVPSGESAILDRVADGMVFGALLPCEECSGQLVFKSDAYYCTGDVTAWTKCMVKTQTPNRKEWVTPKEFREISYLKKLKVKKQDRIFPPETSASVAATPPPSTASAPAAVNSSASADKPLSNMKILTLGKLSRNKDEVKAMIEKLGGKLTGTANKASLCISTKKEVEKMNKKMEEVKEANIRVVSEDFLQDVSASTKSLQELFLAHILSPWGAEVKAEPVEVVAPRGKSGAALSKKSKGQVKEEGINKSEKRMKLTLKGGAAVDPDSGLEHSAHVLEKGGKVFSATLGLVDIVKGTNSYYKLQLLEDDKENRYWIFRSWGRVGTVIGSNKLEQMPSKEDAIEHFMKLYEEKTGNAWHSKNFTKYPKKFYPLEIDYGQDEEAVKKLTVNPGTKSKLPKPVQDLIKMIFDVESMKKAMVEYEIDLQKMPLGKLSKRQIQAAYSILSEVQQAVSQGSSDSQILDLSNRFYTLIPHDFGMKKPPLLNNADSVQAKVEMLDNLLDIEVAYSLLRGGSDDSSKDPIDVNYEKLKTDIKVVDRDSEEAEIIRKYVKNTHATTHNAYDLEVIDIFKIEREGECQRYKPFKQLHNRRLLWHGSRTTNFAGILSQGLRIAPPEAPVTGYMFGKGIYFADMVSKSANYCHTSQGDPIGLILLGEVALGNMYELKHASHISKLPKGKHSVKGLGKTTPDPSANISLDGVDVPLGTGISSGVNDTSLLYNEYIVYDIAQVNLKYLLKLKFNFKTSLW
IC50 (Human PARP-1 enzyme) [nM],SMILES,minimal effective concentration (PC3 cells) [µM],tubulin polymerisation score (tubulin)
25.1,"CCc1cc2ccc([C@](C)(C#N)Cc3cccc(/C=C/S(C)(=O)=O)c3)cc2[nH]c1=O (single isomer, unassigned) [Compound 291]",–,2
25.1,"CCc1cc2ccc([C@@](C)(C#N)Cc3cccc(C#CCO)c3)cc2[nH]c1=O (single isomer, unassigned) [Compound 295]",–,1 (a compound showing 0 to 50% inhibition at 20 μM is reported as score 1)
31.6,"CCc1cc2ccc([C@](C)(C#N)Cc3cccc(C#CCO)c3)cc2[nH]c1=O (single isomer, unassigned) [Compound 296]",–,2
631,"CCc1cc2ccc([C@](C)(C#N)Cc3cc(OC)nc(C)n3)cc2[nH]c1=O (single isomer, unassigned) [Compound 362]",–,2
39.8,CCc1cc2ccc(C(C)(C#N)Cc3cccc(C(=N)NO)c3)cc2[nH]c1=O (stereo not drawn) [Compound 186],3.16,–
100,CCc1cc2ccc(C(C)(C#N)COCc3ccccc3)cc2[nH]c1=O (stereo not drawn) [Compound 197],–,–
50.1,CCc1cc2ccc(C(C)(C#N)Cc3cccc(C(=O)OC(C)C)c3)cc2[nH]c1=O (stereo not drawn) [Compound 255],–,2
126,Cc1cc2ccc(C(C)(C#N)Cc3cccc(I)c3)cc2[nH]c1=O (stereo not drawn) [Compound 256],0.316,–
79.4,CCc1cc2ccc(C(C)(C#N)Cc3cccc(NC)c3)cc2[nH]c1=O (stereo not drawn) [Compound 257],0.316,–
79.4,CCc1cc2ccc(C(C)(C#N)Cc3cc(Br)cc(N(C)C)c3)cc2[nH]c1=O (stereo not drawn) [Compound 260],–,2
50.1,CCc1cc2ccc(C(C)(C#N)Cc3cc(F)ccc3F)cc2[nH]c1=O (stereo not drawn) [Compound 280],1,–
39.8,CCc1cc2ccc(C(C)(C#N)Cc3ccc(F)c(F)c3)cc2[nH]c1=O (stereo not drawn) [Compound 281],0.316,–
79.4,CCc1cc2ccc(C(C)(C#N)Cc3cc(C(F)(F)F)ccc3F)cc2[nH]c1=O (stereo not drawn) [Compound 283],1,–
50.1,CCOc1cccc(CC(C)(C#N)c2ccc3cc(CC)c(=O)[nH]c3c2)c1 (stereo not drawn) [Compound 285],0.316,2
25.1,CCc1cc2ccc(C(C)(C#N)Cc3cccc(OC)c3F)cc2[nH]c1=O (stereo not drawn) [Compound 286],0.562,–
158,CCc1cc2ccc(C(C)(C#N)Cc3cc(C(C)C)ccc3OC)cc2[nH]c1=O (stereo not drawn) [Compound 288],–,–
158,CCc1cc2ccc(C(C)(C#N)Cc3cc(OC)c(OC)c(OC)c3)cc2[nH]c1=O (stereo not drawn) [Compound 289],0.0316,2
31.6,CCc1cc2ccc(C(C)(C#N)Cc3cccc(/C=N/O)c3)cc2[nH]c1=O (stereo not drawn) [Compound 299],1,–
126,CCc1cc2ccc(C(C)(C#N)CNCc3ccc(C#N)cc3)cc2[nH]c1=O (stereo not drawn) [Compound 302],1,–
50.1,CCc1cc2ccc(C(C)(C#N)Cc3cc(C#N)nc(OC)c3)cc2[nH]c1=O (stereo not drawn) [Compound 314],1,1 (a compound showing 0 to 50% inhibition at 20 μM is reported as score 1)
79.4,CCc1cc2ccc(C(C)(C#N)Cc3cc(Cl)nc(N(C)C)c3)cc2[nH]c1=O (stereo not drawn) [Compound 323],–,2
79.4,CCc1cc2ccc(C(C)(C#N)Cc3cc(C#N)nc(N(C)C)c3)cc2[nH]c1=O (stereo not drawn) [Compound 325],3.16,–
39.8,CCc1cc2ccc(C(C)(C#N)Cc3cccc(NC)n3)cc2[nH]c1=O (stereo not drawn) [Compound 339],–,2
79.4,CCc1cc2ccc(C(C)(C#N)Cc3ccc4c(c3)OC(F)(F)O4)cc2[nH]c1=O (stereo not drawn) [Compound 346],–,–
158,CCc1cc2ccc(C(C)(C#N)Cc3c4ccccc4nn3C)cc2[nH]c1=O (stereo not drawn) [Compound 347],0.562,–
63.1,CCc1cc2ccc(C(C)(C#N)Cc3cc(Cl)nc(OC)c3)cc2[nH]c1=O (stereo not drawn) [Compound 351],0.1,–
126,CCc1cc2ccc(C(C)(C#N)Cc3cc(Cl)nc(C)n3)cc2[nH]c1=O (stereo not drawn) [Compound 365],0.316,–
25.1,CCc1cc2ccc(C(C)(C#N)Cc3cccc4[nH]ccc34)cc2[nH]c1=O (stereo not drawn) [Compound 379],–,2

# Continued, compound first:
SMILES,IC50 (Human PARP-1 enzyme) [nM],minimal effective concentration (PC3 cells) [µM],tubulin polymerisation score (tubulin)
"CCc1cc2c(OC)cc(C(C)(C#N)Cc3nc(OC)cc(OC)n3)cc2[nH]c1=O (single isomer, unassigned) [Compound 230]",63.1,1,1 (a compound showing 0 to 50% inhibition at 20 μM is reported as score 1)
"CCc1cc2ccc([C@@](C)(C#N)CCOc3ccc(C#N)cc3)cc2[nH]c1=O (single isomer, unassigned) [Compound 273]",79.4,0.1,2
"CCc1cc2ccc([C@](C)(C#N)CCOc3ccc(C#N)cc3)cc2[nH]c1=O (single isomer, unassigned) [Compound 275]",50.1,–,–
"CCc1cc2ccc([C@@](C)(C#N)Cc3cc(OC)nc(C)n3)cc2[nH]c1=O (single isomer, unassigned) [Compound 361]",126,–,1 (a compound showing 0 to 50% inhibition at 20 μM is reported as score 1)
"Cc1cc2ccc([C@@](C)(C#N)C3CCc4ccccc43)cc2[nH]c1=O (single isomer, unassigned) [Compound 385]",100,10,–
"Cc1cc2ccc([C@](C)(C#N)C3CCc4ccccc43)cc2[nH]c1=O (single isomer, unassigned) [Compound 386]",126,0.316,2
Cc1cc2ccc(C(C)(C#N)Cc3cccc(C=Cc4ccccc4)c3)cc2[nH]c1=O (stereo not drawn) [Compound 179],200,1.78,–
Cc1cc2ccc(C(C)(C#N)Cc3cccc(Oc4ccc(F)cc4)c3)cc2[nH]c1=O (stereo not drawn) [Compound 192],398,1,–
Cc1nc(-c2ccccc2)sc1CC(C)(C#N)c1ccc2cc(C)c(=O)[nH]c2c1 (stereo not drawn) [Compound 235],126,–,1 (a compound showing 0 to 50% inhibition at 20 μM is reported as score 1)
Cc1cc2ccc(C(C)(C#N)Cc3cccc(OCC4CCOCC4)c3)cc2[nH]c1=O (stereo not drawn) [Compound 261],100,1.78,–
CCc1cc2ccc(C(C)(C#N)CN(C)Cc3ccc(C#N)cc3)cc2[nH]c1=O (stereo not drawn) [Compound 300],158,0.1,1 (a compound showing 0 to 50% inhibition at 20 μM is reported as score 1)
Cc1cc2ccc(C(C)(C#N)Cc3cccc(Oc4ccccc4)c3)cc2[nH]c1=O (stereo not drawn) [Compound 305],200,3.16,–
CCc1cc2ccc(C(C)(C#N)Cc3nc(C#N)cc(OC)n3)cc2[nH]c1=O (stereo not drawn) [Compound 313],100,0.0316,2
CCc1cc2ccc(C(C)(C#N)Cc3cc(N(C)C)nc(C#N)n3)cc2[nH]c1=O (stereo not drawn) [Compound 317],79.4,1,–
CCc1cc2ccc(C(C)(C#N)Cc3cc(N(C)C)nc(N(C)C)n3)cc2[nH]c1=O (stereo not drawn) [Compound 320],200,0.316,–
CCc1cc2ccc(C(C)(C#N)Cc3cc(N(C)C)nc(C)n3)cc2[nH]c1=O (stereo not drawn) [Compound 322],200,1,–
CCc1cc2ccc(C(C)(C#N)Cc3cc(N(C)C)nc(OC)n3)cc2[nH]c1=O (stereo not drawn) [Compound 354],79.4,1,–
CCc1cc2ccc(C(C)(C#N)Cc3nc(OC)cc(N(C)C)n3)cc2[nH]c1=O (stereo not drawn) [Compound 355],50.1,–,2
CCc1cc2ccc(C(C)(C#N)Cc3cc(Br)cc4c3OCC4)cc2[nH]c1=O (stereo not drawn) [Compound 378],79.4,0.316,–
Cc1cc2ccc([C@](C)(C#N)[C@H]3CCc4ccccc43)cc2[nH]c1=O [Compound 387],200,3.16,–
Cc1cc2ccc(C(C)(C#N)C3CCc4ccccc43)cc2[nH]c1=O (stereo not drawn) [Compound 392],126,0.316,–
Cc1cc2ccc(C(C)(C#N)C3CCCc4ccccc43)cc2[nH]c1=O (stereo not drawn) [Compound 404],200,0.562,–
Cc1cc2ccc(C(C)(C#N)Cc3cccc(/C=C/CCO)c3)cc2[nH]c1=O (stereo not drawn) [Compound 409],100,–,–
